Laboratory results: PubChem BioAssay AID1845203 (Molecular Pharmacology Branch, DTP, NCI, 2023)
Values joined by “and” are separate entries in the source; they are usually repeats but may differ in a detail not shown here. Identical values can stand only once.

System: G-401 tumor spheroids, viability % test/control
Test: Anticancer human tumor G-401 cell line growth inhibition;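 also: spheroids exposed to compound for 7 days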;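 as to viability, T/C: 100% = DMSO vehicle-treated spheroids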
Conditions: spheroids with HUVEC and MSC; for viability, T/C: stronger effect = lower value
Summary of the method: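 Complex tumor spheroids combined malignant cells with endothelial cells and mesenchymal stem cells. DNA-damaging drugs and DNA repair inhibitors were tested alone and in combination, at half-log dilutions down from clinical Cmax (top 10 microM if Cmax unknown), 0.25% DMSO final.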

[1] = curve of first compound, second compound 0.003 µM
[2] = curve of first compound, second compound 0.00949 µM
[3] = curve of first compound, second compound 0.03 µM
[4] = curve of first compound, second compound 0.0949 µM
[5] = curve of first compound, second compound 0.3 µM
[6] = second compound 0.003 µM, first compound 0.0316 µM
[7] = second compound 0.003 µM, first compound 0.1 µM
[8] = second compound 0.003 µM, first compound 0.316 µM
[9] = second compound 0.003 µM, first compound 1 µM
[10] = second compound 0.003 µM, first compound 3.16 µM
[11] = second compound 0.003 µM, first compound 10 µM
[12] = second compound 0.00949 µM, first compound 0.0316 µM
[13] = second compound 0.00949 µM, first compound 0.1 µM
[14] = second compound 0.00949 µM, first compound 0.316 µM
[15] = second compound 0.00949 µM, first compound 1 µM
[16] = second compound 0.00949 µM, first compound 3.16 µM
[17] = second compound 0.00949 µM, first compound 10 µM
[18] = second compound 0.03 µM, first compound 0.0316 µM
[19] = second compound 0.03 µM, first compound 0.1 µM
[20] = second compound 0.03 µM, first compound 0.316 µM
[21] = second compound 0.03 µM, first compound 1 µM
[22] = second compound 0.03 µM, first compound 3.16 µM
[23] = second compound 0.03 µM, first compound 10 µM
[24] = second compound 0.0949 µM, first compound 0.0316 µM
[25] = second compound 0.0949 µM, first compound 0.1 µM
[26] = second compound 0.0949 µM, first compound 0.316 µM
[27] = second compound 0.0949 µM, first compound 1 µM
[28] = second compound 0.0949 µM, first compound 3.16 µM
[29] = second compound 0.0949 µM, first compound 10 µM
[30] = second compound 0.3 µM, first compound 0.0316 µM
[31] = second compound 0.3 µM, first compound 0.1 µM
[32] = second compound 0.3 µM, first compound 0.316 µM
[33] = second compound 0.3 µM, first compound 1 µM
[34] = second compound 0.3 µM, first compound 3.16 µM
[35] = second compound 0.3 µM, first compound 10 µM

Cc1cc(C)c(CNC(=O)c2cc(-c3ccc(CN4CCOCC4)cc3)cc3c2cnn3C2CCCC2)c(=O)[nH]1 + CC[C@@]1(O)C(=O)OCc2c1cc1n(c2=O)Cc2cc3c(CN(C)C)c(O)ccc3nc2-1
IC50 [1]: 4210 nM
IC50 [2]: < 31.6 nM
IC50 [3]: < 31.6 nM
IC50 [4]: < 31.6 nM
IC50 [5]: < 31.6 nM
viability, T/C [6]: 79.7%
viability, T/C [7]: 81.4%
viability, T/C [8]: 75.1%
viability, T/C [9]: 75.1%
viability, T/C [10]: 58.2%
viability, T/C [11]: 24.3%
viability, T/C [12]: 47.1%
viability, T/C [13]: 39.4%
viability, T/C [14]: 32.9%
viability, T/C [15]: 33.2%
viability, T/C [16]: 22.1%
viability, T/C [17]: 14.2%
viability, T/C [18]: 13.4%
viability, T/C [19]: 12.7%
viability, T/C [20]: 11%
viability, T/C [21]: 9.58%
viability, T/C [22]: 7.81%
viability, T/C [23]: 7.38%
viability, T/C [24]: 7.91%
viability, T/C [25]: 8.43%
viability, T/C [26]: 7.6%
viability, T/C [27]: 6.51%
viability, T/C [28]: 5.89%
viability, T/C [29]: 5.15%
viability, T/C [30]: 5.19%
viability, T/C [31]: 5.25%
viability, T/C [32]: 4.23%
viability, T/C [33]: 4.83%
viability, T/C [34]: 4.3%
viability, T/C [35]: 4.73%

CC(C)n1c(=O)n(C)c2cnc3cc(F)c(-c4ccc(OCCCN5CCCCC5)nc4)cc3c21 + CC[C@@]1(O)C(=O)OCc2c1cc1n(c2=O)Cc2cc3c(CN(C)C)c(O)ccc3nc2-1
IC50 [1]: < 31.6 nM
IC50 [2]: < 31.6 nM
IC50 [3]: < 31.6 nM
IC50 [4]: < 31.6 nM
IC50 [5]: < 31.6 nM
viability, T/C [6]: 18.3%
viability, T/C [7]: 20.1%
viability, T/C [8]: 19.8%
viability, T/C [9]: 22.7%
viability, T/C [10]: 16.1%
viability, T/C [11]: 10.8%
viability, T/C [12]: 12.9%
viability, T/C [13]: 15.5%
viability, T/C [14]: 14.9%
viability, T/C [15]: 14.6%
viability, T/C [16]: 12.9%
viability, T/C [17]: 7.82%
viability, T/C [18]: 13.8%
viability, T/C [19]: 11.8%
viability, T/C [20]: 13.9%
viability, T/C [21]: 15.1%
viability, T/C [22]: 9.27%
viability, T/C [23]: 4.89%
viability, T/C [24]: 10.2%
viability, T/C [25]: 9.71%
viability, T/C [26]: 10.3%
viability, T/C [27]: 12.7%
viability, T/C [28]: 8.85%
viability, T/C [29]: 4.85%
viability, T/C [30]: 5.28%
viability, T/C [31]: 5.27%
viability, T/C [32]: 5.71%
viability, T/C [33]: 6.45%
viability, T/C [34]: 6.65%
viability, T/C [35]: 2.79%

COc1ccc([C@@H](O)c2cc(-c3ncnc4cc(N5CCOCC5)ccc34)c(F)cc2Cl)nn1
viability, T/C (compound 0.0316 µM): 101% and 107% and 106%
viability, T/C (compound 0.1 µM): 91.2% and 94.8% and 97.8%
viability, T/C (compound 0.316 µM): 82.3% and 92.2% and 94.8%
viability, T/C (compound 1 µM): 50.2% and 63.6% and 69.6%
viability, T/C (compound 3.16 µM): 22.2% and 24% and 31%
viability, T/C (compound 10 µM): 11% and 10.1% and 15.4%
IC50 (curve of compound): 1020 nM and 1480 nM and 1800 nM

[2H]c1nc(C)nc([2H])c1-c1cc(NC[C@@H](C)c2cccc3c(C(=O)NC)ccnc23)ncn1 + Cn1nnc2c(C(N)=O)ncn2c1=O
IC50 (curve of first compound, second compound 1 µM): > 10000 nM
IC50 (curve of first compound, second compound 3.16 µM): > 10000 nM
IC50 (curve of first compound, second compound 10 µM): > 10000 nM
IC50 (curve of first compound, second compound 31.6 µM): > 10000 nM
IC50 (curve of first compound, second compound 100 µM): > 10000 nM
viability, T/C (second compound 1 µM, first compound 0.0316 µM): 101%
viability, T/C (second compound 1 µM, first compound 0.1 µM): 106%
viability, T/C (second compound 1 µM, first compound 0.316 µM): 110%
viability, T/C (second compound 1 µM, first compound 1 µM): 102%
viability, T/C (second compound 1 µM, first compound 3.16 µM): 107%
viability, T/C (second compound 1 µM, first compound 10 µM): 103%
viability, T/C (second compound 3.16 µM, first compound 0.0316 µM): 105%
viability, T/C (second compound 3.16 µM, first compound 0.1 µM): 99.3%
viability, T/C (second compound 3.16 µM, first compound 0.316 µM): 101%
viability, T/C (second compound 3.16 µM, first compound 1 µM): 99.8%
viability, T/C (second compound 3.16 µM, first compound 3.16 µM): 105%
viability, T/C (second compound 3.16 µM, first compound 10 µM): 103%
viability, T/C (second compound 10 µM, first compound 0.0316 µM): 93%
viability, T/C (second compound 10 µM, first compound 0.1 µM): 99.6%
viability, T/C (second compound 10 µM, first compound 0.316 µM): 101%
viability, T/C (second compound 10 µM, first compound 1 µM): 96%
viability, T/C (second compound 10 µM, first compound 3.16 µM): 108%
viability, T/C (second compound 10 µM, first compound 10 µM): 94%
viability, T/C (second compound 31.6 µM, first compound 0.0316 µM): 96.3%
viability, T/C (second compound 31.6 µM, first compound 0.1 µM): 101%
viability, T/C (second compound 31.6 µM, first compound 0.316 µM): 99.7%
viability, T/C (second compound 31.6 µM, first compound 1 µM): 100%
viability, T/C (second compound 31.6 µM, first compound 3.16 µM): 94.2%
viability, T/C (second compound 31.6 µM, first compound 10 µM): 97.4%
viability, T/C (second compound 100 µM, first compound 0.0316 µM): 95.9%
viability, T/C (second compound 100 µM, first compound 0.1 µM): 94.8%
viability, T/C (second compound 100 µM, first compound 0.316 µM): 105%
viability, T/C (second compound 100 µM, first compound 1 µM): 92.8%
viability, T/C (second compound 100 µM, first compound 3.16 µM): 89.6%
viability, T/C (second compound 100 µM, first compound 10 µM): 86.5%
